Measurements as given in US20250163169A1, “ANTIBODIES FOR PREVENTING THE CLEAVAGE OF CD95L BY METALLOPROTEASES” (INSTITUT NATIONAL DE LA SANTÉ ET DE LA RECHERCHE MÉDICALE, priority 2022, published 2025).

Assays:
[1] = system: CD95L-expressing leukemic T cell 1A12; experiment: Expression level of membrane-bound CD95L on 1A12 cells by flow cytometry; assay type: cell-based; conditions: 24 h, antibodies 10 pg/mL, GM6001 10 μM
Description: (§1) FIG. 2. Monoclonal antibodies targeting the Metalloprotease-Cleavage Sites of CD95L (MCSCs). […] Arrows represent putative cleavage site in CD95L sequence. […] Indicated peptides were injected in mice to generate monoclonal antibodies and three different hybridoma were selected regarding their ability to bind CD95L. […] B. Recombinant Ig-CD95L (100 ng) was pre-incubated for 15 min with indicated antibodies (100 pg/mL) and then treated for 1h with the indicated MMPs. The metalloprotease-cleaved fragment of Ig-CD95L (CD95L devoid of its released Ig domain of gp190) was monitored by immunoblotting. C. CD95L-expressing leukemic T cell 1A12 was incubated for 24 h with indicated antibodies ([…]) or the pan-MMP inhibitor GM6001 (10 μM) and the expression level of membrane-bound CD95L was assessed by flow cytometry. D. Supernatants were harvested from cells treated in C and the metalloprotease-cleaved CD95L was dosed by ELISA (Diaclone).

[2] = system: s-CD95L release from 1A12 cells; experiment: Metalloprotease-cleaved CD95L dosed by ELISA in supernatants of 1A12 cells; assay type: cell-based; conditions: 1A12 cells treated 24 hours, vs isotype (anti-myc 9E10 mAb) control
Description: as §1

## CNC(=O)[C@H](Cc1c[nH]c2ccccc12)NC(=O)[C@@H](CC(=O)NO)CC(C)C [GM6001, reference compound]
[1]
  Expression level of membrane-bound CD95L: augmentation of m-CD95L
[2]
  Concentrations of s-CD95L in supernatant: significantly reduced
